Values quoted from earlier work, collected in patent publication US8637296B2, “Lactobacillus helveticus strains for producing hypotensive peptides” (Nestec S.A., priority 2008, dated 2014).

Target: angiotensin converting enzyme (ACE) (Homo sapiens, UniProt P12821)
Sequence (P12821 30-1306, species assumed): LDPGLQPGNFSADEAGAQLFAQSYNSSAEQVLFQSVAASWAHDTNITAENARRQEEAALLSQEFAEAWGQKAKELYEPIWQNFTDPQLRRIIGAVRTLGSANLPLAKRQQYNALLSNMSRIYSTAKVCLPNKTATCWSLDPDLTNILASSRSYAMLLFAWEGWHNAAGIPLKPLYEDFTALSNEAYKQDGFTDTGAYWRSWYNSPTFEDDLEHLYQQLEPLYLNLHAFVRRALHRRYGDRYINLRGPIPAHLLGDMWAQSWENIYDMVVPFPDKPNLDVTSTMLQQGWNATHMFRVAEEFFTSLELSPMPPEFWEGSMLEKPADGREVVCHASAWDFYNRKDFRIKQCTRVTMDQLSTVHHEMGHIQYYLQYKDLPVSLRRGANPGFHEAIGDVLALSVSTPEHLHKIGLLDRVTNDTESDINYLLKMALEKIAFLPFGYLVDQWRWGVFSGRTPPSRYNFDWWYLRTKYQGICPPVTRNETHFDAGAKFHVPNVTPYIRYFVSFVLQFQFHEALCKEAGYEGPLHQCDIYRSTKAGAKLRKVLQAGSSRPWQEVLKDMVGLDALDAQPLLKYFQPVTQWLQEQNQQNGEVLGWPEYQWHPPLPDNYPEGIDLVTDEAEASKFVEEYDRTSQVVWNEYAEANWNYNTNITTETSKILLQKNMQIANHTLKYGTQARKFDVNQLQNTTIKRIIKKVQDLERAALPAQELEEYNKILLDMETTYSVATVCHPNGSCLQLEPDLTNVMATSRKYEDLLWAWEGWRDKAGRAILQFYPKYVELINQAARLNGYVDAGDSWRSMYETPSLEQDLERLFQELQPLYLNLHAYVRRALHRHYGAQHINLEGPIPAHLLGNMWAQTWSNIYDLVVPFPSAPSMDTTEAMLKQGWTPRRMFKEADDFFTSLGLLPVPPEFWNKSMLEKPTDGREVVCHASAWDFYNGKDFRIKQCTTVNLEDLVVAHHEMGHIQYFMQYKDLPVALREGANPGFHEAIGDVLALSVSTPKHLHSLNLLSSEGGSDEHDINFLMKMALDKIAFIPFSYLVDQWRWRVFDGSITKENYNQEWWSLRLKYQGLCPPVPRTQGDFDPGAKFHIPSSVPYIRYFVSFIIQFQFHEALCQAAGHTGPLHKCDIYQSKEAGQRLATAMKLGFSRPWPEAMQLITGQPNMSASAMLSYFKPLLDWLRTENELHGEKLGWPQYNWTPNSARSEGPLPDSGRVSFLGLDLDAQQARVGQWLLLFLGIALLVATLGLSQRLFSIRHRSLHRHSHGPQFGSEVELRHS

| inhibition of angiotensin converting enzyme (ACE) | Structure (SMILES) |
| --- | --- |
| inhibit | CC[C@H](C)[C@H](N)C(=O)N1CCC[C@H]1C(=O)N1CCC[C@H]1C(=O)O [IPP, isoleucyl-prolyl-proline] |
| inhibit | CC(C)[C@H](N)C(=O)N1CCC[C@H]1C(=O)N1CCC[C@H]1C(=O)O [VPP, valyl-prolyl-proline] |
